Results on one compound are retold here after ChEMBL document CHEMBL4831513, “Discovery of quinazoline derivatives as a novel class of potent and in vivo efficacious LSD1 inhibitors by drug repurposing” (Eur J Med Chem, 2021).

The subject of data set [1] is MGC-803. The data set can be described thus: Antitumor activity against human MGC-803 cells xenografted in nude mouse assessed as reduction in tumor weight at 80 mg/kg/day, iv administered for 21 days relative to control. Format: functional. Particulars: MGC-803, iv, 504 h, time 21 day. A general note: Xenograft models place foreign cells or tissue in a host animal.

Data set [2] deals with MGC-803. The data set can be described thus: Induction of apoptosis in human MGC-803 cells assessed as late apoptotic cells at 10 uM measured after 24 hrs by Annexin V-FITC/PI staining based flow cytometry analysis (Rvb= 3.9%). The format is functional.
Data set [3] deals with T1, MAO-A (Homo sapiens, UniProt P21397).
T1 sequence (P21397 whole entry): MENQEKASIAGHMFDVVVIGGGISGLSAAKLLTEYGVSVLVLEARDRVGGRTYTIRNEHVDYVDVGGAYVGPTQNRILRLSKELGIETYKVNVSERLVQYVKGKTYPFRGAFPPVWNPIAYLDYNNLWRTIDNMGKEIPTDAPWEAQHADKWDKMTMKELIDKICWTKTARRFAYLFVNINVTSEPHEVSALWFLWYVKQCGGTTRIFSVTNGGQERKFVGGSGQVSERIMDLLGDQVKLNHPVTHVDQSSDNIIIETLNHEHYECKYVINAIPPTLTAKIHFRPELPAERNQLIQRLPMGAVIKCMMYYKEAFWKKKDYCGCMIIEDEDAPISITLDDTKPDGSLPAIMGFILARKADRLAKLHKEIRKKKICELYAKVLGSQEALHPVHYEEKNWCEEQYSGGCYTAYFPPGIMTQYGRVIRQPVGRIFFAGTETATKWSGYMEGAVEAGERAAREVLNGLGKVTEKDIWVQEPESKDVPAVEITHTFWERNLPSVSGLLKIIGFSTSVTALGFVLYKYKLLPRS
The experiment in a line: Inhibition of N-terminal FLAG-tagged recombinant human MAO-A expressed in baculovirus-infected Sf9 cells at 5 uM using luciferin derivative as substrate pretreated for 15 mins followed by substrate addition and incubated for 60 mins by luciferase assay relative to control. Conditions: probe luciferin derivative, time 75 min.

Data set [4] has as its system MGC-803. The data set can be described thus: cells. Conditions: Homo sapiens, MGC-803, 72 h.
Description: Antiproliferative activity against human MGC-803 cells assessed as cell growth inhibition measured after 72 hrs by MTT assay
The test system of data set [5] is MGC-803. The data set can be described thus: Induction of apoptosis in human MGC-803 cells assessed as early apoptotic cells at 10 uM measured after 24 hrs by Annexin V-FITC/PI staining based flow cytometry analysis (Rvb= 6.1%). The format is functional. Background: A flow cytometer gives signals particle by particle.
For data set [6], the system named is NCI-H1650. The experiment in a line: cells. Conditions: Homo sapiens, NCI-H1650, 72 h.
Description: Antiproliferative activity against human NCI-H1650 cells assessed as cell growth inhibition measured after 72 hrs by MTT assay
Data set [7] deals with MGC-803. The experiment in a line: Antitumor activity against human MGC-803 cells xenografted in nude mouse assessed as chromatin condensation in tumor tissue at 40 to 80 mg/kg/day, iv measured after 21 days by H and E staining based histopathological analysis. Particulars: dose 40-80 mg/kg/day, time 21.0 day. The format is functional, organism-based.
Data set [8] concerns MGC-803. The data set can be described thus: Induction of apoptosis in human MGC-803 cells assessed as live cells at 20 uM measured after 24 hrs by Annexin V-FITC/PI staining based flow cytometry analysis (Rvb= 89%). The format is functional.
A short description of data set [9]: Ocular toxicity in nude mouse xenografted with human MGC-803 cells at 40 to 80 mg/kg/day, iv administered for 21 days. The format is organism-based. Conditions: in vivo, 504 h, dose 40-80 mg/kg/day, time 21 day.
The subject of data set [10] is ECa-109 cell line. The experiment in a line: cells. Particulars: Homo sapiens, ECa-109, 72 h.
Description: Antiproliferative activity against human EC109 cells assessed as cell growth inhibition measured after 72 hrs by MTT assay
For data set [11], the system named is NCI-H460. The data set can be described thus: cells. Particulars: Homo sapiens, NCI-H460, 72 h.
Description: Antiproliferative activity against human NCI-H460 cells assessed as cell growth inhibition measured after 72 hrs by MTT assay
Data set [12] deals with MCF7. The experiment in a line: cells. Conditions: Homo sapiens, MCF7, 72 h.
Description: Antiproliferative activity against human MCF7 cells assessed as cell growth inhibition measured after 72 hrs by MTT assay
Data set [13] concerns HepG2. The data set can be described thus: cells. Particulars: Homo sapiens, HepG2, 72 h.
Description: Antiproliferative activity against human HepG2 cells assessed as cell growth inhibition measured after 72 hrs by MTT assay
The target of data set [14] is Tyrosine-protein kinase BTK (Homo sapiens) (UniProt Q06187). The experiment in a line: Inhibition of N-terminal GST-fused human full length recombinant BTK expressed in baculovirus-infected Sf21 cells at 5 uM using 5-FAM-EAIYAAPFAKKK as a substrate incubated for 60 mins in the presence of ATP by caliper analysis relative to control.
Tyrosine-protein kinase BTK (Homo sapiens), sequence (Q06187 whole entry, the tested form may be a part): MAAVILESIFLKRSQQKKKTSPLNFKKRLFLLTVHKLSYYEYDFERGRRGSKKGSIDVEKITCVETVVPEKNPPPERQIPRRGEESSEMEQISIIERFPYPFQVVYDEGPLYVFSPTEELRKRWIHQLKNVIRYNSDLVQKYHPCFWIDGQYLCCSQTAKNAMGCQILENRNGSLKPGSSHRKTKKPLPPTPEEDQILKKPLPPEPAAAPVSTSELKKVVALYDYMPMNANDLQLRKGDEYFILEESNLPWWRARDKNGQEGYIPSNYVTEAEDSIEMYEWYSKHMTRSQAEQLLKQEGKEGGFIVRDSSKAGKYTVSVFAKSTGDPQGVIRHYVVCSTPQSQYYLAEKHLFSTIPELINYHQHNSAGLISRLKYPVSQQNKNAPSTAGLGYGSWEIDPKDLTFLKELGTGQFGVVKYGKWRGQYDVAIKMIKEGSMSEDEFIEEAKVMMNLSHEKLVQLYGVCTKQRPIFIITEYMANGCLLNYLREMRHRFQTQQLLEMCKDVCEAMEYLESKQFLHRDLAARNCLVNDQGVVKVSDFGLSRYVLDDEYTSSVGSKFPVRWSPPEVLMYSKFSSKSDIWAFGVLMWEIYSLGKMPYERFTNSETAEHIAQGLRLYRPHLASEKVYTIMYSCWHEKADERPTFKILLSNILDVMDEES
Data set [15] in a line: Toxicity in nude mouse xenografted with human MGC-803 cells assessed as body weight loss at 40 to 80 mg/kg/day, iv administered for 21 days. The format is organism-based. Particulars: in vivo, 504 h, dose 40-80 mg/kg/day, time 21 day.
Data set [16] relates to MGC-803. The data set can be described thus: Inhibition of epithelial mesenchymal transition process in human MGC-803 cells assessed as decrease in N-cadherin expression at 0.1 to 0.5 uM measured after 24 hrs western blot analysis. Format: functional, cell-based. Particulars: dose 0.1-0.5 µM.

SMILES strings stand for the structures. Activity calls are given as the source filed them. No cut-off for these calls is given here.

The inhibition in vivo is the change of the read-out against control, counted positive when it falls. The term inhibition denotes the relative decrease from the control value, in per cent. Broadly, the IC50 is the concentration needed to halve the response being measured.

Regarding `COCCOc1cc2ncnc(Sc3nc[nH]n3)c2cc1OCCOC`, the inhibition in vivo at 80 mg/kg/day in [1] is 96.1%. Also, the Activity in data set [2] is listed as 29.3%; in [5], 13.3%; in data set [8], 20.6%; in data set [9], “Non-Toxic”; in [15], “Non-Toxic”. The inhibition at 1.25 h, 5 µM in data set [3] is 15%. For the same compound, the 50% inhibitory concentration (IC50) in data set [4] amounted to 9.21 µM; in data set [6], 17.2 µM; in data set [10], 9.65 µM; in data set [11] it was 28.2 µM; in [12], 38.5 µM; in data set [13], 16.2 µM. Moreover, the outcome in data set [7] was Active. Moreover, the inhibition in data set [14] was < 2%. Besides, in [16], the inhibition result is “Active”.
